{"source": "patent US10493100B2", "about": "“Pharmaceutical composition for preventing or treating brain cancer including crystal polymorph of tetraarsenic hexoxide, and method for preparing same” (CHEMAS CO., LTD., priority 2016, dated 2019)", "key": {"[1]": {"system": "glioblastoma in the left parieto-temporal lobe", "assay": "Clinical Test-2: patient", "assay_type": "in vivo, human", "conditions": "after surgery, radiotherapy and Tremodal", "protocol": "(§1) The following clinical tests were conducted using the composition of Example 1.\nThis patient with symptoms of headache, vomiting, diplopia, and visual field defect was diagnosed with glioblastoma in the left parieto-temporal lobe. On the 3rd day after the diagnosis, tumor removal was conducted by surgery, and the tumor was confirmed as glioblastoma of the WHO grade IV/IV as a result of pathologic diagnosis. Radiotherapy with Tremodal treatment (61.2 Gy/33fx) was performed from the 45th day to the 90th day after the diagnosis. The remaining tumors were still confirmed on MRI images after the radiotherapy and Tremodal treatment. From the 95th day after the diagnosis, 5 mg of Example 1 was administered three times a day for 17 months. […] The pre-treatment MRI images of this patient are shown in FIG. 7, and MRI images after the surgery and radiotherapy are shown in FIG. 8. Respective images after four months, seven months, and ten months of administration of Example 1 are shown in FIGS. 9A, 9B, and 9C, respectively."}, "[2]": {"system": "U-87MG cells labeled with luciferase", "assay": "In vivo efficacy test, tumor imaging signal in animal models transplanted with human brain glioblastoma cell line", "design": "species or system Balb/C female nude mice", "conditions": "2.25 mg/kg once daily", "protocol": "(§2) The human brain glioblastoma cell line U-87MG (purchased from ATCC) was incubated in Eagle's Minimum Essential Medium (EMEM) supplemented with 10% FBS, 100 U/ml penicillin, and 100 μg/ml streptomycin in an incubator under conditions of 37° C., 5% CO2, and 95% air. The medium was exchanged every three days.\n(§3) The U-87MG cells labeled with luciferase were inoculated into the primary site of the brain in […] Balb/C female nude mice weighing 16-19 g, and the amount of cells inoculated was 5×10^5/5 uL. The animals were subjected to imaging examinations on the 6th day after the inoculation, when the surgical sites of the animals were restored and the tumor cells were slightly grown. The animals were randomly divided into two groups, four animals for each group, according to the imaging results. A test group was administered with a solution containing Example 1 dissolved in physiological saline (0.9% NaCl), and a control group was administered with only physiological saline, which is a solvent used for the test group. The animals of the two groups were administered once daily with physiological saline or 2.25 mg/kg Example 1. The dose was 10 uL/g on the basis of the weight of the animals. During the administration, the weight and health conditions of the animals were continuously monitored, and at the same time, the animals were subjected to image examination."}, "[3]": {"system": "human brain glioblastoma cell line U-87MG", "assay": "Cell proliferation assay (MTT assay), U-87MG", "assay_type": "cell-based", "protocol": "(§4) Fetal bovine serum (FBS) and cell culture medium were prepared (Hyclone), and dimethyl sulfoxide (DMSO) and 3-(4,5-dimetyl-thiazol-2yl)-2,5-diphenyltetrazolium bromide (MTT, Amresco LLC, USC) were prepared.\n(§5) As human cancer cell lines, human brain glioblastoma cell lines U-87MG and U-118MG were obtained from the Shanghai Cell Bank of Chinese Academy of Sciences. The cells were incubated in Eagle's Minimum Essential Medium (EMEM), supplemented with 10% FBS, 100 U/ml penicillin, and 100 μg/ml streptomycin according to the culture condition, in a humidified incubator with 5% CO2 and 95% air. The medium was exchanged every three days.\n(§6) The effects of Example 1 and Comparative Examples 1 to 3 on cell proliferation were assessed using MTT assay. MTT assay is based on the ability of viable cells against MTT to produce insoluble dark blue formazan products. After the cells were suspended in the medium by trypsin treatment and collected, the cells were dispensed at a density of 4×10^3 cells/well in a 96-well culture dish (Costar, Cambridge, Mass., USA). After 24 hours, Example 1 and Comparative Examples 1 to 3 as treatment samples were added, at 0, 0.625, 1.25, 2.5, 5, 10, 20, 40, or 80 μM, to the cells in the media containing 10% FBS, and then the cells were incubated. […] All the crystals were completely dissolved by standing at room temperature for 15 minutes, and the absorbance was measured using a micro-plate reader at a wavelength of 570 nm (A570 nm).\n(§7) The absorbance value of the control group treated without the sample was calculated as 100, and the absorbance value of the treatment group treated with the sample, compared with that of the control group, was calibrated, and the percentage of inhibition of cell proliferation was calculated according to the following equation. Percentage (%) of inhibition of cell proliferation=((mean absorbance of control group cells−mean absorbance of treatment group cells)/mean absorbance of control group cells)×100\n(§8) All data were expressed as mean±standard error of the mean (mean±SEM). […]"}, "[4]": {"assay": "Weight measurement in animal models transplanted with human brain glioblastoma cell line", "assay_type": "in vivo, Balb/C female nude mice", "protocol": "as §2, §3"}, "[5]": {"system": "gliomatosis cerebri", "assay": "Clinical Test-1: patient", "assay_type": "in vivo, human", "protocol": "as §1\nFrom the 10th day after the diagnosis, mobility weakening and trembling symptoms of both arms began to appear and then proceeded rapidly. […] Pre-treatment MRI images of this patient are shown in FIG. 4, and MRI images after two months and three months of radiotherapy together with administration of Example 1 are shown in FIGS. 5 and 6, respectively."}, "[6]": {"system": "human brain glioblastoma cell line U-118MG", "assay": "Cell proliferation assay (MTT assay), U-118MG", "assay_type": "cell-based", "protocol": "as §4, §5, §6, §7, §8"}, "[7]": {"conditions": "from the 7th day of administration (FIG. 10A)"}, "[8]": {"conditions": "compared with Comparative Example 2 or 3 (4:1 or 1:1 mixtures)"}}, "data": [{"substance": "tetraarsenic hexoxide [Example 1]", "values": [{"measurement": "sizes of remaining tumors (MRI)", "setting": "[1]; 5 mg three times a day for 17 months", "result": "confirmed to decrease"}, {"measurement": "subjective symptoms", "setting": "[1]; 5 mg three times a day, from 2 months of administration", "result": "no subjective symptom"}, {"measurement": "luminescence signal intensities due to the proliferation and metastasis of tumors", "setting": "[2]; 7th and 9th days of administration (FIG. 10B), control group vs test group", "result": "in the control group were much stronger than those in the test group"}, {"measurement": "tumor signal intensities", "setting": "[2]; [7]", "result": "significantly light"}, {"measurement": "tumor signals in the spine (tumor metastasis into the spine)", "setting": "[2]; [7]", "result": "hardly observed in the spine"}, {"measurement": "percentage of inhibition of brain glioblastoma cell proliferation", "setting": "[3]; [8]", "result": "higher"}, {"measurement": "percentage of inhibition of brain glioblastoma cell proliferation", "setting": "[3]; incubation 48 hours (FIG. 2A), compared with Comparative Example 1", "result": "higher"}, {"measurement": "percentage of inhibition of brain glioblastoma cell proliferation", "setting": "[3]; incubation 72 hours (FIG. 2B), compared with Comparative Example 1", "result": "higher"}, {"measurement": "Body change 9 days after the first administration", "setting": "[4]; 2.25 mg/kg once daily", "result": -0.8, "unit": "g"}, {"measurement": "Weight 9 days after the first administration", "setting": "[4]; 2.25 mg/kg once daily, mean ± SEM, 4 animals", "result": "16.1 ± 0.5", "unit": "g"}, {"measurement": "weight after 9 days of drug administration (in words)", "setting": "[4]; 2.25 mg/kg once daily, control group largely reduced", "result": "almost unchanged weight"}, {"measurement": "Weight before administration", "setting": "[4]; test group, mean ± SEM, 4 animals, baseline", "result": "16.9 ± 0.2", "unit": "g"}, {"measurement": "mobility weakening and trembling symptoms", "setting": "[5]; 15 mg per day from the 17th day after the diagnosis, before radiotherapy", "result": "began to improve"}, {"measurement": "symptoms", "setting": "[5]; 15 mg per day together with radiotherapy from the 27th to the 75th day after the diagnosis", "result": "the symptoms disappeared completely"}, {"measurement": "tumor size on MRI images", "setting": "[5]; after three months of radiotherapy together with administration (FIG. 6)", "result": "tumors almost disappeared"}, {"measurement": "tumor size on MRI images", "setting": "[5]; after two months of radiotherapy together with administration (FIG. 5)", "result": "tumor sizes were reduced"}, {"measurement": "percentage of inhibition of brain glioblastoma cell proliferation", "setting": "[6]; [8]", "result": "higher"}, {"measurement": "percentage of inhibition of brain glioblastoma cell proliferation", "setting": "[6]; incubation 48 hours (FIG. 3A), compared with Comparative Example 1", "result": "higher"}, {"measurement": "percentage of inhibition of brain glioblastoma cell proliferation", "setting": "[6]; incubation 72 hours (FIG. 3B), compared with Comparative Example 1", "result": "higher"}]}]}
